Test results: patent US20130310440A1, “METHOD FOR TREATING NON-SMALL CELL LUNG CANCER” (TEVA PHARMACEUTICAL INDUSTRIES LTD., priority 2012, published 2013)
Where two headings read alike, the source gives them in different places. In the oligonucleotide strings, read from the 5' end, every base follows the letter of its sugar. An asterisk marks phosphorothioate; unmarked linkages are phosphodiester. Other units and linkages are bracketed, terminal groups are in braces. A string of capitals states the bases alone. e = 2'-O-(2-methoxyethyl) (MOE); [5mC] = 5-methylcytosine; d = 2'-deoxy (DNA)

Columns and labels:
[1] = human, in vivo; cited from earlier work
[2] = cited from earlier work
NSCLC = conditions: patients treated with docetaxel in the 2nd line setting; cited from earlier work
CYP3A4 = CYP3A4 (Homo sapiens, UniProt P08684); conditions: cited from earlier work
Sequence of CYP3A4 (P08684 whole entry): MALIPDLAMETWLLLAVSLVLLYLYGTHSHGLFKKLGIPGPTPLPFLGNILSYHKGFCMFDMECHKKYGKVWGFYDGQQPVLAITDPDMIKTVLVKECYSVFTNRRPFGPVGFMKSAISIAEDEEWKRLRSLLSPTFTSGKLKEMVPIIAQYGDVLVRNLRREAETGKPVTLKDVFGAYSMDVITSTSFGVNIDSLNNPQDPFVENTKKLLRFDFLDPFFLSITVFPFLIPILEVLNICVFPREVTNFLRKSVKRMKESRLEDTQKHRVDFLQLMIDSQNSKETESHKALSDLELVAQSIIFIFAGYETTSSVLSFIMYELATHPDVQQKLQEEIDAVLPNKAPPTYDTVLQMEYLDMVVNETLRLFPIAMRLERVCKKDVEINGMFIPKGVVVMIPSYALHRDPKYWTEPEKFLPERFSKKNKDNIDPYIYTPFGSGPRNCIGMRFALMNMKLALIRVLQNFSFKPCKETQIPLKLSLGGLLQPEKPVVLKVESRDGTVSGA

[3] = test system: Stage IV Non-Squamous Non-Small Cell Lung Cancer; experiment: Phase III study: paclitaxel/carboplatin with or without custirsen (Examples 1 and 2); format: in vivo, human
Source text: Subjects randomized to the custirsen arm first receive three doses of custirsen in a 5 to 9 day loading dose period prior to Day 1 of Cycle 1. Subjects randomized to both study arms have 21-day chemotherapy cycles until disease progression, unacceptable toxicity, or completion of 6 cycles; however, subjects randomized to the custirsen arm also receive weekly doses of custirsen starting at Day 1 of each of the 21-day chemotherapy cycles until disease progression, unacceptable toxicity, or completion of all 6 cycles.
This is a randomized, open-label, sponsor-blinded multinational trial. Treatment consists of paclitaxel/carboplatin/custirsen vs. paclitaxel/carboplatin, which compose the two arms of the study.
After a screening period of up to 28 days, subjects are randomly assigned with equal probability to the two arms. Stratified randomization is used in order to minimize between-arm imbalance over four stratification factors: Gender, Eastern Cooperative Oncology Group (ECOG) performance status (0 vs. 1), Smoking status (former/current smoker vs. never-smoker) and Geographical Region (North America, Europe and Southeast Asia).
Subjects randomized to the custirsen arm have a 5 to 9 day loading dose period prior to Day 1 of Cycle 1. […] Subjects who are removed from study treatment for any reason other than disease progression or death are followed for documented disease progression. Once disease progression is documented, subjects enter a survival follow-up phase during which data is collected regarding further cancer treatment and their survival status.
Tumor response to study treatment and disease progression is based on the criteria proposed by the Response Evaluation Criteria in Solid Tumors (RECIST) 1.1 guidelines. All subjects undergo CT or MRI scans of the chest and upper abdomen, as well as any other areas clinically indicated, at screening, then every 6 weeks, starting at week 8 for the first 26 weeks (week 8, 14, 20 and 26) and then every 12 weeks after the week 26 scan until disease progression. These time points are kept within a window of +one week, regardless of the treatment schedule. The week 26 scan is performed as scheduled, regardless of whether the patient is still in the treatment period (i.e. due to treatment delays) or has already completed the end of treatment visit. Once a patient is discontinued from study treatment for documented disease progression, scanning is no longer required. Assessment of these scans is carried out in a blinded fashion, by a Central Imaging Lab.
Adverse events are recorded at each visit during the study and 28 days after the last dose of study treatment. Medical history is assessed at screening and an electrocardiogram is performed. Physical examination, assessment of the ECOG performance status, vital signs and laboratory evaluations are conducted at screening and throughout the study. Adverse events are recorded from when a subject is signed the Informed Consent Form and throughout the study, until the end of the treatment visit (28 days following last dose). They are reviewed and updated at each subsequent visit and during any phone contact with the subject.
The general health status, as reported by the subjects is assessed by the EuroQoL (EQ-5D) and FACT-L questionnaires. Medical resource utilization is also compared between the treatment arms. The EQ-5D is a standardized instrument for use as a measure of health outcome. Applicable to a wide range of health conditions and treatments, it provides a simple descriptive profile and a single index value for health status that can be used in the clinical and economic evaluation of health care as well as population health surveys. EQ-5D is designed for self-completion by subjects. In this study the instrument is self-administrated.
640 mg in 250 mL normal saline IV over 2 hours.
Carboplatin AUC 6.0 mg/ml/min IV over 30 minutes.
The primary outcome measure is overall survival (OS). […]

[4] = test system: cancerous human prostate, breast, ovarian, lung, renal, bladder, and melanoma cells; conditions: cited from earlier work
[5] = test system: Advanced or Metastatic (Stage IV) Non Small Cell Lung Cancer; experiment: Phase III study: custirsen plus docetaxel versus docetaxel, second line (Example 3); format: in vivo, human
Source text: A Multinational, Randomized, Open-Label Phase III Study of Custirsen (TV-1011/OGX-011) In Combination With Docetaxel Versus Docetaxel As A Second-Line Treatment In Patients with Advanced or Metastatic (Stage IV) Non Small Cell Lung Cancer.
Patients randomized to the custirsen arm (Arm A) have 3 doses of custirsen administered in a 5 to 9 day Loading Dose Period prior to Day 1 of Cycle 1. Patients in Arm A receive custirsen on Days 1, 8 and 15, and docetaxel on Day 1 of the 21-day cycles. Patients in Arm B receive only docetaxel on Day 1 of the 21-day cycles. Patients randomized to both arms have 21-day chemotherapy cycles until disease progression, unacceptable toxicity, withdrawal of consent or protocol specified parameters to stop treatment.
After a screening period of up to 28 days, patients are randomized 1:1 to receive either docetaxel and custirsen (Arm A) or docetaxel (Arm B). Randomization is stratified by gender (male vs. female), NSCLC histology (squamous vs. non-squamous), best overall response to the first-line platinum-based therapy (SD/CR/PR vs. PD) and ECOG PS (0 vs. 1) to minimize imbalance at randomization. Patients randomized to Arm A receive 3 doses of custirsen administered in a 5 to 9 day Loading Dose Period prior to Day 1 of Cycle 1. Following the Loading Dose period, patients in Arm A receive custirsen on Days 1, 8 and 15, and docetaxel on Day 1 of the 21-day cycle. Patients in Arm B receive only docetaxel on Day 1 of the 21-day cycle. Patients randomized to both study arms have 21-day chemotherapy cycles until disease progression, unacceptable toxicity, withdrawal from study treatment, or protocol specified parameters to stop treatment. Patients who are removed from study treatment for any reason other than disease progression or death are followed for documented radiological disease progression. All patients who discontinued study treatment are followed to collect further anticancer treatment and survival information until death, loss to follow-up, withdrawal of consent, or up to 12 months after the end of treatment visit for the last patient on the study, whichever comes first.
Tumor response to study treatment and disease progression are based on the criteria proposed by the Response Evaluation Criteria in Solid Tumors (RECIST) guideline (version 1.1). All patients undergo CT or MRI scans of the chest and upper abdomen, as well as any other areas clinically indicated, at screening, then every 6 weeks, starting at week 8 after randomization until disease progression. Tumor measurement is also performed during the end of treatment visit if it is not done within the previous 6 weeks. Patients who discontinue study treatment for reasons other than disease progression continue to have tumor measurements per RECIST v1.1 until disease progression, start of new anticancer therapy, withdrawal of consent, lost to follow-up, or death, whichever occurs first. Assessment of these scans is carried out in a blinded fashion, by a Central Imaging Lab designated by the Sponsor.
Adverse events and concomitant medications are collected throughout the study up to 28 days after the last dose of study treatment. Medical history is assessed, documented results of EGFR and KRAS mutation status are collected, if available, and an electrocardiogram is performed at screening. Physical examination, assessment of the ECOG Performance Status, vital signs, and laboratory evaluations are conducted at screening and throughout the study.
The general health status, as reported by the patients, are assessed by the Functional Assessment of Cancer Therapy-Lung (FACT-L) questionnaire.
Study Agent: Three loading doses of custirsen 640 mg IV over 2 hours administered in 5 to 9 days prior to Day 1 of Cycle 1, then custirsen 640 mg IV over 2 hours on Days 1, 8 and 15 of a 21-day cycle.
Chemotherapy: Docetaxel 75 mg/m^2 IV over 1 hour on Day 1 of a 21-day cycle. […]

[6] = in vivo
Method: Three doses of 640 mg custirsen are administered IV during the Loading Dose Period (Days −9 to −1). There is at least one “non-infusion” day between each administration of custirsen (i.e. every other day) during the Loading Dose Period and between the third loading dose of custirsen and Day 1 of Cycle 1. The day prior to Day 1 of Cycle 1 (Day 0) is a “no treatment” day. There are no more than 4 days between the last loading dose and Day 1 of Cycle 1. A common schedule is to give the three loading doses of custirsen on Monday, Wednesday and Friday with Day 1, Cycle 1 starting on the following Monday. Up to nine days are allowed for completing the three loading doses prior to Day 0 to account for clinic visits, weekends, and holidays. Subjects receive each dose of custirsen as a 2 hour infusion.

clusterin = conditions: cited from earlier work
stage IIIB or IV NSCLC = experiment: Phase 1-2 study of weekly custirsen plus a gemcitabine/platinum-based regimen: survival by serum clusterin; format: in vivo, human; conditions: for median survival time: plus gemcitabine/platinum
Method: The relationship between serum clusterin levels and the duration of individual survival was evaluated during a phase 1-2 study of weekly custirsen plus a gemcitabine/platinum-based regimen in patients with stage IIIB or IV NSCLC. Not all of the patients in this study had baseline levels of clusterin measured. However, starting with N=69 subjects with measured baseline clusterin levels, fitting the Cox proportional hazards (PH) model with baseline clusterin as sole predictor gives p=0.10; the coefficient is positive, so that higher clusterin is associated with increased survival risk. Among the N=55 subjects who also had post-baseline data collected, fitting the same PH model gives p=0.05, again with positive coefficient.
A careful search for possible cutpoints, using all N=69 subjects with baseline clusterin levels, produced 71 μg/mL as a strong candidate.
Among all N=69 subjects with a baseline clusterin level, there were […] with clusterin ≦71 μg/mL (median survival time was 18.8 months), and N=26 subjects with baseline clusterin >71 μg/mL (median survival time was 10.2 months); the log-rank p-value=0.004. Removing the N=14 early discontinuers leaves N=35 subjects with baseline clusterin ≦71 μg/mL (median survival time was 28.7 months), and N=20 subjects with baseline clusterin >71 μg/mL (median survival time was 12.2 months); the log-rank p-value=0.0002.
To further assess the relevance of baseline clusterin as a predictor of survival, data from the study were further segregated based on average and minimum clusterin levels achieved during treatment.

In the case of `N.N.O=C([O-])C1(C(=O)[O-])CCC1.[Pt+2]` [carboplatin, Carboplatin], the major dose-limiting toxicity [1] is given as “Bone marrow suppression”.
For `CC(=O)O[C@@]12CO[C@@H]1C[C@H](O)[C@@]1(C)C(=O)[C@H](O)C3=C(C)[C@@H](OC(=O)[C@H](O)[C@@H](NC(=O)OC(C)(C)C)c4ccccc4)C[C@@](O)([C@@H](OC(=O)c4ccccc4)[C@H]21)C3(C)C` [Docetaxel], the “grade 4 neutropenia (<500 cells/mm^3), patients affected” value ([2]; 60 mg/m^2) is given as 75%, the “grade 4 neutropenia (<500 cells/mm^3), patients affected” value ([2]; 100 mg/m^2) is given as 85% and the “Neutropenia (<2,000 neutrophils/mm3), patients affected” value ([2]; 60-100 mg/m^2) is given as “virtually all patients”. For the same molecule, the “incidence of treatment-related mortality” value ([2]; abnormal liver function, higher doses, or NSCLC with prior platinum-based chemotherapy, single agent 100 mg/m^2) was “increased”, the “most common side effects” value ([2]; human, in vivo) was “infections, neutropenia, anemia, febrile neutropenia, hypersensitivity, thrombocytopenia, neuropathy, dysgeusia, dyspnea, constipation, anorexia, nail disorders, fluid retention, asthenia, pain, nausea, diarrhea, vomiting, mucositis, alopecia, skin reactions and myalgia” and the “median PFS” value (NSCLC) was “about 3 months”. For the same molecule, the CYP3A4 substrate status (CYP3A4) was “CYP3A4 substrate”.
In the case of “custirsen: anti-clusterin antisense oligonucleotide CAGCAGCAGAGTCTTCATCAT (Seq. ID No.: 1), phosphorothioate backbone, 2′-O-methoxyethyl at nucleotides 1-4 and 18-21, 5-methylcytosines at 1, 4, 19 (antisense e[5mC]*eA*eG*e[5mC]*dA*dG*dC*dA*dG*dA*dG*dT*dC*dT*dT*dC*dA*eT*e[5mC]*eA*eT; listed as Homo sapiens)”, the overall survival ([3]; Arm A (custirsen+paclitaxel/carboplatin) compared to Arm B (paclitaxel/carboplatin)) was “prolonged survival”, the progression free survival ([3]; Arm A compared to Arm B) was “increased” and the “proportion of subjects surviving free of progression for at least 14 weeks” value ([3]; Arm A compared to Arm B) was “statistically significant higher proportion”. For the same molecule, the quality of life ([3]; Arm A compared to Arm B) was “improves”, the “symptoms of NSCLC (chest pain, pleural effusions, pulmonary edema, dyspnea, hemoptysis)” value ([3]; Arm A compared to Arm B) was “occasionally improve” and the “survival by baseline serum clusterin” value ([3]; Arm A patients, baseline clusterin below 71 μg/mL versus above 71 μg/mL) was “tend to survive longer”. For the same molecule, the safety and tolerability ([3]; custirsen 640 mg IV + paclitaxel/carboplatin (Arm A)) was “safe and well tolerated”, the apoptosis [4] was “facilitates apoptosis” and the “sensitization of cancer cells to chemotherapy” value [4] was “sensitizes”. For the same molecule, the overall survival ([5]; Arm A (custirsen+docetaxel) compared to Arm B (docetaxel)) was “prolonged survival”, the progression free survival ([5]; Arm A compared to Arm B) was “increased” and the “proportion of subjects surviving free of progression for at least 14 weeks” value ([5]; Arm A compared to Arm B) was “statistically significant higher proportion”. The quality of life ([5]; Arm A compared to Arm B) was “improves”, the “symptoms of NSCLC (chest pain, pleural effusions, pulmonary edema, dyspnea, hemoptysis)” value ([5]; Arm A compared to Arm B) was “occasionally improve” and the safety and tolerability ([5]; custirsen 640 mg IV + docetaxel 75 mg/m^2 (Arm A)) was “safe and well tolerated”. For the same molecule, the “grade 1-2 constitutional symptoms (e.g., fever and chills), subjects affected” value [6] was 50-60%, the expression of clusterin (clusterin) was “potently reduces the expression of clusterin” and the “probability of extended survival by baseline and on-treatment clusterin” value (stage IIIB or IV NSCLC; low baseline clusterin (71 μg/mL cutpoint) and low levels during therapy (33 μg/mL average or 30 μg/mL minimum cutpoint)) was “greatest probability of extended survival”. The median survival time (stage IIIB or IV NSCLC; all subjects with baseline clusterin level, clusterin >71 μg/mL (N=26)) was 10.2 months, the median survival time (stage IIIB or IV NSCLC; all subjects with baseline clusterin level, clusterin ≦71 μg/mL (N=45)) was 18.8 months and the median survival time (stage IIIB or IV NSCLC; early discontinuers removed, baseline clusterin >71 μg/mL (N=20)) was 12.2 months. It also gave a median survival time (stage IIIB or IV NSCLC; early discontinuers removed, baseline clusterin ≦71 μg/mL (N=35)) of 28.7 months.
